Assay results as given in patent publication US7767665B2, “1,3-benzothiazinone derivatives and use thereof” (Takeda Pharmaceutical Company Limited, priority 2001, dated 2010).

| Structure (SMILES) | melting point |
| --- | --- |
| O=C(O)CCOCc1cccc(-c2nc(=O)c3ccccc3s2)n1 [Example 337, 3-[(6-(4-oxo-4H-1,3-benzothiazin-2-yl)-2-pyridyl)methoxy]propionic acid] | 176.6 to 176.7 °C |
| CC(C)(C)OC(=O)/C=C/c1cccc(-c2nc(=O)c3ccccc3s2)n1 [Example 147, tert-Butyl (E)-3-[6-(4-oxo-4H-1,3-benzothiazin-2-yl)-2-pyridyl]-2-propenoate] | 175.5 to 177.6 °C |
| CC(C)(C)OC(=O)N1CCCC1c1ccnc(-c2nc(=O)c3ccccc3s2)c1 (stereo not drawn) [Example 352, tert-Butyl 2-[2-(4-oxo-4H-1,3-benzothiazin-2-yl)-4-pyridyl]-1-pyrrolidinecarboxylate] | 194.8 to 195.8 °C |
| O=c1nc(-c2ccc(N3CCOCC3)nc2)sc2ccccc12 [Example 35, 2-[6-(4-Morpholino)-3-pyridyl]-4H-1,3-benzothiazine-4-one] | 232.6 to 234.4 °C |
| CCNC(=O)NCCc1cccc(-c2nc(=O)c3ccccc3s2)n1 [Example 228, N-Ethyl-N′-[2-[6-(4-oxo-4H-1,3-benzothiazin-2-yl)-2-pyridyl]ethyl]urea] | 240.3 to 242.4 °C |
| CCOc1ccc(-c2nc(=O)c3ccccc3s2)cn1 [Example 91, 2-(6-Ethoxy-3-pyridyl)-4H-1,3-benzothiazine-4-one] | 152.3 to 156.2 °C |
| CS(=O)(=O)c1ccc(-c2nc(=O)c3ccccc3s2)cn1 [Example 262, 2-[6-(Methylsulfonyl)-3-pyridyl]-4H-1,3-benzothiazine-4-one] | 205 to 207 °C |
| O=c1cccc(-c2nc(=O)c3ccccc3s2)[nH]1 [Example 326, 2-(6-Oxo-1,6-dihydro-2-pyridyl)-4H-1,3-benzothiazine-4-one] | 214.2 to 215.3 °C |
| C[S+]([O-])c1nccc(-c2nc(=O)c3ccccc3s2)n1 (stereo not drawn) [Example 285, 2-[2-(Methylsulfinyl)-6-pyrimidinyl]-4H-1,3-benzothiazine-4-one] | 250.5 to 252 °C |
| O=c1nc(-c2cc(-c3ccccc3)ccn2)sc2ccccc12 [Example 137, 2-(4-Phenyl-2-pyridyl)-4H-1,3-benzothiazine-4-one] | 164.4 to 164.7 °C |
| CCOP(=O)(CCc1cccc(-c2nc(=O)c3ccccc3s2)n1)OCC | 148.8 to 149.8 °C |
| O=c1nc(-c2ccnc(OCc3ccccc3)c2)sc2ccccc12 [Example 69, 2-(2-Benzyloxy-4-pyridyl)-4H-1,3-benzothiazine-4-one] | 116 to 116.5 °C |
| O=C(NCCc1ccnc(-c2nc(=O)c3ccccc3s2)c1)c1ccccc1 [Example 225, N-[2-[2-(4-Oxo-4H-1,3-benzothiazin-2-yl)-4-pyridyl]ethyl]benzamide] | 216.8 to 219.3 °C |
| O=C(O)CCc1ccnc(-c2nc(=O)c3ccccc3s2)c1 [Example 308, 3-[2-(4-Oxo-4H-1,3-benzothiazin-2-yl)-4-pyridyl]propionic acid] | 215.3 to 215.9 °C |
| CCCNc1ccc(-c2nc(=O)c3ccccc3s2)cn1 [Example 31, 2-[6-(Propylamino)-3-pyridyl]-4H-1,3-benzothiazine-4-one] | 210.1 to 210.6 °C |
| NC(=O)CSc1cccc(-c2nc(=O)c3ccccc3s2)n1 [Example 282] | 256.7 to 257 °C |
| O=c1nc(-c2cccc(CN3CCC(O)(c4ccc(Cl)cc4)CC3)n2)sc2ccccc12 | 151 to 153 °C |
| O=c1nc(-c2ccccn2)sc2ccc(Cl)cc12 [Example 9, 6-Chloro-2-(2-pyridyl)-4H-1,3-benzothiazine-4-one] | 269.4 to 270.1 °C |
| O=c1nc(-c2cccs2)sc2ccccc12 [Example 2, 2-(2-Thienyl)-4H-1,3-benzothiazine-4-one] | 157.7 to 158.2 °C |
| CC(C)Oc1ccc(-c2nc(=O)c3ccccc3s2)cn1 [Example 93, 2-[6-Isopropoxy-3-pyridyl]-4H-1,3-benzothiazine-4-one] | 109.7 to 110.4 °C |
| N#Cc1cccc(-c2nc(=O)c3ccccc3s2)n1 [Example 242, 6-(4-Oxo-4H-1,3-benzothiazin-2-yl)-s-pyridinecarbonitrile] | 263.7 to 264.2 °C |
| CCOC(=O)CCCCCOc1ccc(-c2nc(=O)c3ccccc3s2)cn1 [Example 96, Ethyl 6-{[5-(4-oxo-4H-1,3-benzothiazin-2-yl)-2-pyridyl]oxy}hexanoate] | 73.6 to 73.9 °C |
| CC(=O)NCCc1cccc(-c2nc(=O)c3ccccc3s2)n1 [Example 226, N-[2-[6-(4-Oxo-4H-1,3-benzothiazin-2-yl)-2-pyrizyl]ethyl]acetamide] | 206.7 to 207.9 °C |
| CC(C)(C)OC(=O)CCc1cccc(-c2nc(=O)c3ccc(F)cc3s2)n1 [Example 181, tert-Butyl 3-[6-(7-fluoro-4-oxo-4H-1,3-benzothiazin-2-yl)-2-pyridyl]propanoate] | 158.5 to 159.5 °C |

| Structure (SMILES) | melting point |
| --- | --- |
| CC(C)(C)OC(=O)CCc1cccc(-c2nc(=O)c3ccc(C(F)(F)F)cc3s2)n1 [Example 177, tert-Butyl 3-[6-(4-oxo-7-trifluoromethyl-4H-1,3-benzothiazin-2-yl)-2-pyridyl]propanoate] | 148.5 to 149.4 °C |
| CN(CC(=O)O)C(=O)CCc1cccc(-c2nc(=O)c3ccccc3s2)n1 [Example 314, (Methyl{3-[6-(4-oxo-4H-1,3-benzothiazin-2-yl)-2-pyridyl]propanoyl}amino)acetic acid] | 194.5 to 194.8 °C |
| CSc1cncc(-c2nc(=O)c3ccccc3s2)n1 [Example 287, 2-[6-(Methylthio)-2-pyrazinyl]-4H-1,3-benzothiazine-4-one] | 202.4 to 202.9 °C |
| CC(C)(C)OC(=O)CCOCCCc1ccnc(-c2nc(=O)c3ccccc3s2)c1 [Example 101, tert-Butyl 3-[3-[2-(4-oxo-4H-1,3-benzothiazin-2-yl)-4-pyridyl]propoxy]propanoate] | 81.1 to 82.2 °C |
| O=c1nc(-c2ccc[nH]2)sc2ccccc12 [Example 15, 2-(1H-Pyrrol-2-yl)-4H-1,3-benzothiazine-4-one] | 202.4 to 203.2 °C |
| O=C(NCCO)c1cccc(-c2nc(=O)c3ccccc3s2)n1 [Example 201, N-(2-Hydroxyethyl)-6-(4-oxo-4H-1,3-benzothiazin-2-yl)-2-pyridinecarboxamide] | 213.8 to 215.2 °C |
| O=c1nc(-c2ccccn2)sc2ccc(OCc3ccccc3)cc12 [Example 121, 6-(Benzyloxy)-2-(2-pyridyl)-4H-1,3-benzothiazine-4-one] | 198 to 198.8 °C |
| CC(C)(C)OC(=O)CCc1ccnc(-c2nc(=O)c3ccc(F)cc3s2)c1 [Example 184, tert-Butyl 3-[2-(7-fluoro-4-oxo-4H-1,3-benzothiazin-2-yl)-4-pyridyl]propanoate] | 137.6 to 138.1 °C |
| O=c1nc(-c2cccc(Sc3ncccn3)n2)sc2ccccc12 [Example 270, 2-[6-(2-Pyrimidinylthio)-2-pyridyl]-4H-1,3-benzothiazine-4-one] | 245.2 to 245.8 °C |
| CC(C)(C)OC(=O)CCc1ccnc(-c2nc(=O)c3ccc(Cl)cc3s2)c1 [Example 183, tert-Butyl 3-[2-(7-chloro-4-oxo-4H-1,3-benzothiazin-2-yl)-4-pyridyl]propanoate] | 151.8 to 152.1 °C |
| CN(C)C(=O)Nc1cccc(-c2nc(=O)c3ccccc3s2)n1 [Example 231, N,N-Dimethyl-N′-[6-(4-oxo-4H-1,3-benzothiazin-2-yl)-2-pyridyl]urea] | 230.1 to 230.3 °C |
| O=C(NCc1cccc(-c2nc(=O)c3ccccc3s2)n1)c1cccs1 [Example 208, N-[[6-(4-Oxo-4H-1,3-benzothiazin-2-yl)-2-pyridyl]methyl]-2-thiophenecarboxamide] | 208.5 to 209 °C |
| Cc1cc(CCC(=O)O)cc(-c2nc(=O)c3ccc(Cl)cc3s2)n1 [Example 322, 3-[2-(7-Chloro-4-oxo-4H-1,3-benzothiazin-2-yl)-6-methyl-4-pyridyl]propionic acid] | 273.5 °C (dec.) |
| O=c1nc(-c2ccccn2)sc2ncccc12 [Example 22, 2-(2-Pyridyl)-4H-pyrido[3,2-e][1,3]thiazine-4-one] | 234.7 to 234.9 °C |
| O=C(NCCc1cccc(-c2nc(=O)c3ccccc3s2)n1)c1ccccc1 [Example 224, N-[2-[6-(4-Oxo-4H-1,3-benzothiazin-2-yl)-2-pyridyl]ethyl]benzamide] | 201.7 to 202.6 °C |
| CCOC(=O)c1ccnc(-c2nc(=O)c3ccccc3s2)c1 [Example 27, Ethyl 2-(4-oxo-4H-1,3-benzothiazin-2-yl)isonicotinate] | 235.9 to 236.7 °C |
| O=c1nc(-c2ccccn2)sc2ccc(O)cc12 [Example 84, 6-Hydroxy-2-(2-pyridyl)-4H-1,3-benzothiazine-4-one] | 313.3 to 315 °C |
| O=C(O)CSc1cccc(-c2nc(=O)c3ccccc3s2)n1 [Example 276, [6-(4-Oxo-4H-1,3-benzothiazin-2-yl)-2-pyridyl]thioacetic acid] | 258 to 260 °C |
| O=c1nc(-c2cccc(-n3cccn3)n2)sc2ccccc12 [Example 196, 2-[6-(1H-Pyrazol-1-yl)-2-pyridyl]-4H-1,3-benzothiazine-4-one] | 253 to 254 °C |
| CC(C)CCS(=O)(=O)c1cccc(-c2nc(=O)c3ccccc3s2)n1 [Example 158, 2-(6-Isoamylsulfonyl-2-pyridyl)-4H-1,3-benzothiazine-4-one] | 145.5 to 147 °C |
| Cc1ccc(Sc2ccc(-c3nc(=O)c4ccccc4s3)cn2)cc1 [Example 90, 2-[2-(4-Methyl)phenylthio-3-pyridyl]-4H-1,3-benzothiazine-4-one] | 172.6 to 172.8 °C |
| O=c1nc(-c2ccccn2)sc2cc(Br)ccc12 [Example 241, 7-Bromo-2-(2-pyridyl)-4H-1,3-benzothiazine-4-one] | 230.7 to 232.2 °C |
| CC(C)(C)OC(=O)CCCCCOc1ccc2sc(-c3ccccn3)nc(=O)c2c1 [Example 124, tert-Butyl 6-[[4-oxo-2-(2-pyridyl)-4H-1,3-benzothiazin-6-yl]oxy]hexanoate] | 101.2 to 102.4 °C |
| O=C(NCc1cccc(-c2nc(=O)c3ccccc3s2)n1)C(F)(F)F [Example 209, 2,2,2-Trifluoro-N-[[6-(4-oxo-4H-1,3-benzothiazin-2-yl)-2-pyridyl]methyl]acetamide] | 226.4 to 227.4 °C |
